# Results from patent US12692223B2, “Phenyl-sulfamoyl-benzoic acid derivatives as ERAP1-modulators” (GREY WOLF THERAPEUTICS LIMITED, priority 2021, dated 2026).
# Target: T1, ERAP1 (Homo sapiens, UniProt Q9NZ08)
# T1 construct: Purified ERAP1(37-941)-10His (ERAP1)
# Assay: ERAP1 mediated hydrolysis of an amide substrate measured in a biochemical system (10-mer inhibition assay)
# Settings: purified ERAP1(37-941)-10His; 10-mer substrate; 23° C. for 1 h; excitation 279 nm, emission 355 nm; read-out: IC50 vs Decapeptide WRVYEKC(Dnp)ALK-acid (where Dnp is Dinitrophenyl maleimide) (10-mer)
# Method: Biological Assay 1: ERAP1 Mediated Hydrolysis of an Amide Substrate Measured in a Biochemical System
# • 1× Assay buffer (AB): 25 mM Bis-tris propane, 0.05% w/v • Hydroxypropylmethylcellulose pH 7.75 made with Optima grade water • Decapeptide WRVYEKC(Dnp)ALK-acid (where Dnp is Dinitrophenyl maleimide) (10-mer) • L-Leucine 7-amido-4-methylcoumarin (L-AMC) • Purified ERAP1(37-941)-10His (ERAP1) Assay Procedure:
# 12.5 μL ERAP1 enzyme in 1×AB was combined with 250 nL test compound in DMSO. 12.5 μL of either 240 μM L-AMC in 1×AB or 100 μM 10-mer in 1×AB was added to the reaction and incubated at 23° C. for 1 h. For detection, plates were read at excitation 365 nm and emission 442 nm (L-AMC) or excitation 279 nm and emission 355 nm (10-mer). Compound IC50 was determined using a 4-parameter equation.
# T1 sequence (Q9NZ08 37-941): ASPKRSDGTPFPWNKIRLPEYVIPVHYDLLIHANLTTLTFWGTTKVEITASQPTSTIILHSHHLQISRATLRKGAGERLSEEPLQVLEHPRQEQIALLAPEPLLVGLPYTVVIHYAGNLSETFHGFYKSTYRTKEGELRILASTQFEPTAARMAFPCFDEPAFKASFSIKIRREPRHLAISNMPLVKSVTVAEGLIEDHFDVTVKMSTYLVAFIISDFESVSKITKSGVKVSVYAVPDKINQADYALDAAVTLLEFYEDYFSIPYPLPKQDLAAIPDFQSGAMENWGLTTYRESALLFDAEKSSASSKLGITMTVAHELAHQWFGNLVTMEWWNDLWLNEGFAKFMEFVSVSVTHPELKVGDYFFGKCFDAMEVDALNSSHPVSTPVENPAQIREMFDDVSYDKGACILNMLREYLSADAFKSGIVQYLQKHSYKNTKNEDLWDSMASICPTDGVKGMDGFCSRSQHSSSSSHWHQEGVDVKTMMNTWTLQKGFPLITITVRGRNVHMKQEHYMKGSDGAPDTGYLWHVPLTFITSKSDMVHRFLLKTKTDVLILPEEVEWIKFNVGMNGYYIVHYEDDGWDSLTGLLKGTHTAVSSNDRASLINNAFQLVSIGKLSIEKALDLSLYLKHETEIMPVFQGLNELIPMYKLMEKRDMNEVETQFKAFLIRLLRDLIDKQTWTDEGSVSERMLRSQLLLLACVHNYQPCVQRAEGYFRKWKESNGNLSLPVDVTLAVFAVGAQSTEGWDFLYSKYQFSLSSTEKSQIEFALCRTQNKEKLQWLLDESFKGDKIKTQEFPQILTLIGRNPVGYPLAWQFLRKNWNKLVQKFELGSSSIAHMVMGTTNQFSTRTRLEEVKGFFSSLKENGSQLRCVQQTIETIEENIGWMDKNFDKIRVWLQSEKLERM
row,Structure (SMILES),IC50 [nM]
1,"Cc1cc(C#N)cc(NS(=O)(=O)c2cc(C(=O)O)ccc2C2CC2)c1OC1CCCC1 [Example 15, 3-(N-(5-cyano-2-(cyclopentyloxy)−3-methylphenyl)sulfamoyl)-4-cyclopropylbenzoic acid]",> 5
2,"CC1CC(Oc2cc(Cl)c(C#N)cc2NS(=O)(=O)c2cc(C(=O)O)ccc2C2CC2)C1 (single isomer, unassigned) [Example 115, 3-(N-(4-chloro-5-cyano-2-(3-methylcyclobutoxy)phenyl)sulfamoyl)-4-cyclopropylbenzoic acid]",< 1
3,"N#Cc1cc(NS(=O)(=O)c2cc(C(=O)O)ccc2C2CC2)c(OCC2(F)CCC2)cc1Cl [Example 58, 3-(N-(4-chloro-5-cyano-2-((1-fluorocyclobutyl)methoxy)phenyl)sulfamoyl)-4-cyclopropylbenzoic acid]",< 1
4,"COC1CCCC1Oc1cc(Cl)c(C#N)cc1NS(=O)(=O)c1cc(C(=O)O)ccc1C1CC1 (single isomer, unassigned) [Example 104, 3-(N-(4-chloro-5-cyano-2-((trans-2-methoxycyclopentyl)-oxy)phenyl)sulfamoyl)-4-cyclopropylbenzoic acid]",> 5
5,"N#Cc1cc(NS(=O)(=O)c2cc(C(=O)O)ccc2C2CC2)c(O[C@H]2C[C@@H](C#N)C2)cc1Cl [Example 53, 3-(N-(4-chloro-5-cyano-2-(cis-3-cyanocyclobutoxy)phenyl)sulfamoyl)-4-cyclopropylbenzoic acid]",1 to 5
6,"Cc1oncc1-c1cc(NS(=O)(=O)c2cc(C(=O)O)ccc2C2CC2)c(OC2CCC2)cc1Cl [Example 60, 3-(N-(4-chloro-2-cyclobutoxy-5-(5-methylisoxazol-4-yl)phenyl)sulfamoyl)-4-cyclopropylbenzoic acid]",< 1
7,"COC1CCCC1Oc1cc(Cl)c(C#N)cc1NS(=O)(=O)c1cc(C(=O)O)ccc1C1CC1 (racemic) [Example 85, 3-(N-(4-chloro-5-cyano-2-((trans-2-methoxycyclopentyl)oxy)phenyl)sulfamoyl)-4-cyclopropylbenzoic acid]",< 1
8,"N#Cc1cc(NS(=O)(=O)c2cc(C(=O)O)c(F)cc2C2CC2)c(OC2CCCC2)cc1Cl [Example 16, 5-(N-(4-chloro-5-cyano-2-(cyclopentyloxy)phenyl)sulfamoyl)-4-cyclopropyl-2-fluorobenzoic acid]",< 1
9,"O=C(O)c1ccc(C2CC2)c(S(=O)(=O)Nc2cc(-n3cnnn3)c(Cl)cc2OC2CCCC2)c1 [Example 10, 3-(N-(4-chloro-2-(cyclopentyloxy)−5-(1H-tetrazol-1-yl)phenyl)sulfamoyl)-4-cyclopropylbenzoic acid]",< 1
10,"O=C(O)c1ccc(C2CC2)c(S(=O)(=O)Nc2cc(-n3cnnn3)c(F)cc2OC2CCCC2)c1 [Example 9, 3-(N-(2-(cyclopentyloxy)-4-fluoro-5-(1H-tetrazol-1-yl)phenyl)sulfamoyl)-4-cyclopropylbenzoic acid]",< 1
11,"C#CC1CCCC1Oc1cc(Cl)c(C#N)cc1NS(=O)(=O)c1cc(C(=O)O)ccc1C1CC1 (single isomer, unassigned) [Example 126, 3-(N-(4-chloro-5-cyano-2-((cis-2-ethynylcyclopentyl)oxy)phenyl)sulfamoyl)-4-cyclopropylbenzoic acid]",< 1
12,"N#Cc1cc(NS(=O)(=O)c2cc(C(=O)O)ccc2C2CC2)c(OC2CCC2C2CC2)cc1Cl (single isomer, unassigned) [Example 132, 3-(N-(4-chloro-5-cyano-2-(2-cyclopropylcyclobutoxy)phenyl)sulfamoyl)-4-cyclopropylbenzoic acid]",1 to 5
13,"N#Cc1cc(NS(=O)(=O)c2cc(C(=O)O)ccc2C2CC2)c(OC2CCC(C#N)C2)cc1Cl (racemic) [Example 74, 3-(N-(4-chloro-5-cyano-2-((cis-3-cyanocyclopentyl)oxy)phenyl)sulfamoyl)-4-cyclopropylbenzoic acid]",< 1
14,"CCc1ccc(C(=O)O)cc1S(=O)(=O)Nc1cc(C(F)(F)F)ccc1OC1CCCC1 [Example 5, 3-(N-(2-(cyclopentyloxy)−5-(trifluoromethyl)phenyl)sulfamoyl)-4-ethylbenzoic acid]",> 5
15,"N#Cc1cc(NS(=O)(=O)c2cc(C(=O)O)ccc2C2CC2)c(OC2CCC(F)(F)C2)cc1Cl (stereo not shown) [Example 134, 3-(N-(4-chloro-5-cyano-2-((3,3-difluorocyclopentyl)oxy)phenyl)sulfa-moyl)-4-cyclopropylbenzoic acid]",< 1
16,"C#CC1CCCC1Oc1cc(Cl)c(C#N)cc1NS(=O)(=O)c1cc(C(=O)O)ccc1C1CC1 (racemic) [Example 84, 3-(N-(4-chloro-5-cyano-2-((trans-2-ethynylcyclopentyl)oxy)phenyl)sulfamoyl)-4-cyclopropylbenzoic acid]",< 1

row,Structure (SMILES),IC50 [nM]
1,"N#Cc1cc(NS(=O)(=O)c2cc(C(=O)O)ccc2C2CC2)c(OC2CCC(F)(F)C2)cc1Cl (single isomer, unassigned) [Example 141, 3-(N-(4-chloro-5-cyano-2-((3,3-difluorocyclopentyl)oxy)phenyl)sulfa-moyl)-4-cyclopropylbenzoic acid]",< 1
2,"CO[C@@H]1CCC[C@@H]1Oc1cc(Cl)c(C#N)cc1NS(=O)(=O)c1cc(C(=O)O)ccc1C1CC1 (single isomer, unassigned) [Example 143, 3-(N-(4-chloro-5-cyano-2-((cis-2-methoxycyclopentyl)oxy)phenyl)sulfa-moyl)-4-cyclopropylbenzoic acid]",1 to 5
3,"CC1(C)CCC[C@H]1Oc1cc(F)c(-n2cnnn2)cc1NS(=O)(=O)c1cc(C(=O)O)ccc1C1CC1 [Example 125, (R)-4-cyclopropyl-3-(N-(2-((2,2-dimethylcyclopentyl)oxy)-4-fluoro-5-(1H-tetrazol-1-yl)phenyl)sulfamoyl)benzoic acid]",< 1
4,"N#Cc1cc(NS(=O)(=O)c2cc(C(=O)O)ccc2C2CC2)c(OC2CCC(O)C2)cc1Cl (racemic) [Example 111, 3-(N-(4-chloro-5-cyano-2-((trans-3-hydroxycyclopentyl)oxy)phenyl)sulfa-moyl)-4-cyclopropylbenzoic acid]",1 to 5
5,"CC(Oc1cc(Cl)c(C#N)cc1NS(=O)(=O)c1cc(C(=O)O)ccc1C1CC1)C1CCC1 (stereo not shown) [Example 42, 3-(N-(4-chloro-5-cyano-2-(1-cyclobutylethoxy)phenyl)sulfamoyl)-4-cyclopropylbenzoic acid]",< 1
6,"COC1(COc2cc(Cl)c(C#N)cc2NS(=O)(=O)c2cc(C(=O)O)ccc2C2CC2)CCC1 [Example 87, 3-(N-(4-chloro-5-cyano-2-((1-methoxycyclobutyl)methoxy)phenyl)sulfamoyl)-4-cyclopropylbenzoic acid]",< 1
7,"N#Cc1cc(NS(=O)(=O)c2cc(C(=O)O)ccc2C2CC2)c(OCC2CCC2)cc1Cl [Example 35, 3-(N-(4-chloro-5-cyano-2-(cyclobutylmethoxy)phenyl)sulfamoyl)-4-cyclopropylbenzoic acid]",< 1
8,"C[C@@H](Oc1cc(Cl)c(C#N)cc1NS(=O)(=O)c1cc(C(=O)O)ccc1C1CC1)C1CCC1 [Example 78, (R)-3-(N-(4-chloro-5-cyano-2-(1-cyclobutylethoxy)phenyl)sulfamoyl)-4-cyclopropylbenzoic acid]",< 1
9,"COC1CCC(Oc2cc(Cl)c(C#N)cc2NS(=O)(=O)c2cc(C(=O)O)ccc2C2CC2)C1 (mixture of isomers) [Example 124, 3-(N-(4-chloro-5-cyano-2-((3-methoxycyclopentyl)oxy)phenyl)sulfa-moyl)-4-cyclopropylbenzoic acid]",< 1
10,"Cc1oncc1-c1cc(NS(=O)(=O)c2cc(C(=O)O)ccc2C2CC2)c(OC2CC(F)(F)C2)cc1Cl [Example 61, 3-(N-(4-chloro-2-(3,3-difluorocyclobutoxy)-5-(5-methylisoxazol-4-yl)phenyl)sulfamoyl)-4-cyclopropylbenzoic acid]",< 1
11,"N#Cc1cc(NS(=O)(=O)c2cc(C(=O)O)ccc2C2CC2)c(OC2CCC2C2CC2)cc1Cl (single isomer, unassigned) [Example 130, 3-(N-(4-chloro-5-cyano-2-(2-cyclopropylcyclobutoxy)phenyl)sulfamoyl)-4-cyclopropylbenzoic acid]",1 to 5
12,"CN1CC(COc2cc(Cl)c(C#N)cc2NS(=O)(=O)c2cc(C(=O)O)ccc2C2CC2)C1 [Example 38, 3-(N-(4-chloro-5-cyano-2-((1-methylazetidin-3-yl)methoxy)phenyl)sulfamoyl)-4-cyclopropylbenzoic acid]",> 5
13,"COC1CCCC1Oc1cc(Cl)c(C#N)cc1NS(=O)(=O)c1cc(C(=O)O)ccc1C1CC1 (single isomer, unassigned) [Example 103, 3-(N-(4-chloro-5-cyano-2-((trans-2-methoxycyclopentyl)-oxy)phenyl)sulfamoyl)-4-cyclopropylbenzoic acid]",< 1
14,"CC1CCCC1Oc1cc(Cl)c(C#N)cc1NS(=O)(=O)c1cc(C(=O)O)ccc1C1CC1 (single isomer, unassigned) [Example 99, 3-(N-(4-chloro-5-cyano-2-((trans-2-methylcyclopentyl)oxy)-phenyl)sulfamoyl)-4-cyclopropylbenzoic acid]",< 1
15,"CC1CC(COc2cc(Cl)c(C#N)cc2NS(=O)(=O)c2cc(C(=O)O)ccc2C2CC2)C1 (mixture of isomers) [Example 89, 3-(N-(4-chloro-5-cyano-2-((3-methylcyclobutyl)methoxy)phenyl)sulfamoyl)-4-cyclopropylbenzoic acid]",< 1
